The data set has as its system B16/F10 melanoma cells. The data set is described as follows: Efficacy study in tumor-burdened mice, tumor volume and mortality. The data set is classed as in vivo, C57BL/6 mice. To be noted: paclitaxel 40 mg/kg, formulations […], day 0, 2, 5 and 7. On the procedure: The efficacy of the formulated nanodrugs was compared to that of unformulated paclitaxel for the treatment of tumor-burdened mice. For these studies C57BL/6 mice were implanted with B16/F10 melanoma cells. Once the cells formed tumors with an approximate volume of 500 mm^3 the mice (n=4/group/formulation) received an injection of either unformulated paclitaxel or one of the formulations (Formulations II, IV and XIII). Paclitaxel was given at a dose of 40 mg/kg, whereas the formulated drugs were administered at a dose of 2.5 mg/kg. The mice were treated on day 0, 2, 5 and 7 of the days and tumor responses were determined by measuring tumor volume during the course of the study

Consider `CC(=O)O[C@H]1C(=O)[C@@]2(C)[C@H]([C@H](OC(=O)c3ccccc3)[C@]3(O)C[C@H](OC(=O)[C@H](O)[C@@H](NC(=O)c4ccccc4)c4ccccc4)C(C)=C1C3(C)C)[C@]1(OC(C)=O)CO[C@@H]1C[C@@H]2O` [unformulated paclitaxel, Paclitaxel], for which the mortality rate stood at 75%.

Source of the values: US8558019B2, “Thiolated paclitaxels for reaction with gold nanoparticles as drug delivery agents” (Virginia Tech Intellectual Properties, Inc., priority 2007, dated 2013).
